Experimental data: PubChem BioAssay (NCI)
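Dose response: 5 concentrations. Exposure: 48 h. Format: 96-well plates. Endpoint: linear interpolation; highest concentration if not reached. TGI: concentration producing complete growth inhibition.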

What was measured:
Experiment in all cases: growth of human tumour cells (NCI), 48 h
HCT-116 colon = tested on: HCT-116 colon
CCRF-CEM leukemia = tested on: CCRF-CEM leukemia
EKVX NSCLC = tested on: EKVX NSCLC
OVCAR-3 ovarian = tested on: OVCAR-3 ovarian
SNB-19 CNS = tested on: SNB-19 CNS
ACHN renal = tested on: ACHN renal
UACC-62 melanoma = tested on: UACC-62 melanoma
A549 NSCLC = tested on: A549 NSCLC
PC-3 prostate = tested on: PC-3 prostate
HOP-92 NSCLC = tested on: HOP-92 NSCLC
HCC-2998 colon = tested on: HCC-2998 colon
SF-295 CNS = tested on: SF-295 CNS
K-562 leukemia = tested on: K-562 leukemia
NCI-H23 lung = tested on: NCI-H23 lung
T-47D breast = tested on: T-47D breast
MDA-N = tested on: MDA-N
OVCAR-5 ovarian = tested on: OVCAR-5 ovarian
HL-60(TB) leukemia = tested on: HL-60(TB) leukemia
MOLT-4 leukemia = tested on: MOLT-4 leukemia
LOX IMVI melanoma = tested on: LOX IMVI melanoma
A498 renal = tested on: A498 renal
TK-10 renal = tested on: TK-10 renal
SNB-75 CNS = tested on: SNB-75 CNS
SF-539 CNS = tested on: SF-539 CNS
DU-145 prostate = tested on: DU-145 prostate
786-0 renal = tested on: 786-0 renal
MDA-MB-231 breast = tested on: MDA-MB-231 breast
SK-MEL-5 melanoma = tested on: SK-MEL-5 melanoma
BT-549 breast = tested on: BT-549 breast
UACC-257 melanoma = tested on: UACC-257 melanoma
SN12C renal = tested on: SN12C renal
U251 CNS = tested on: U251 CNS
RXF 393 renal = tested on: RXF 393 renal
UO-31 renal = tested on: UO-31 renal
NCI-H226 lung = tested on: NCI-H226 lung
SK-MEL-2 melanoma = tested on: SK-MEL-2 melanoma
MALME-3M melanoma = tested on: MALME-3M melanoma
HT29 colon = tested on: HT29 colon
M14 melanoma = tested on: M14 melanoma
COLO 205 colon = tested on: COLO 205 colon
IGROV1 ovarian = tested on: IGROV1 ovarian
NCI/ADR-RES ovarian = tested on: NCI/ADR-RES ovarian
HS 578T breast = tested on: HS 578T breast
SK-OV-3 ovarian = tested on: SK-OV-3 ovarian
MDA-MB-435 = tested on: MDA-MB-435
MCF7 breast = tested on: MCF7 breast
CAKI-1 renal = tested on: CAKI-1 renal
OVCAR-8 ovarian = tested on: OVCAR-8 ovarian
NCI-H460 lung = tested on: NCI-H460 lung
SF-268 CNS = tested on: SF-268 CNS
HCT-15 colon = tested on: HCT-15 colon
KM12 colon = tested on: KM12 colon
SR leukemia = tested on: SR leukemia
OVCAR-4 ovarian = tested on: OVCAR-4 ovarian
RPMI-8226 leukemia = tested on: RPMI-8226 leukemia
SK-MEL-28 melanoma = tested on: SK-MEL-28 melanoma
NCI-H522 lung = tested on: NCI-H522 lung
SW-620 colon = tested on: SW-620 colon
HOP-62 NSCLC = tested on: HOP-62 NSCLC

## CC1C2(C)OC(=N)C(C#N)(C(c3ccccc3)O2)C1(C#N)C#N (stereo not drawn)
HCT-116 colon
  TGI: 49.8 µM
CCRF-CEM leukemia
  TGI: 67.6 µM
EKVX NSCLC
  TGI: 56.6 µM
OVCAR-3 ovarian
  TGI: 29.1 µM
SNB-19 CNS
  TGI: > 100 µM
ACHN renal
  TGI: > 100 µM
UACC-62 melanoma
  TGI: 56.4 µM
A549 NSCLC
  TGI: > 100 µM
PC-3 prostate
  TGI: 88.7 µM
HOP-92 NSCLC
  TGI: 29.7 µM
HCC-2998 colon
  TGI: 22.7 µM
SF-295 CNS
  TGI: > 100 µM
K-562 leukemia
  TGI: > 100 µM
NCI-H23 lung
  TGI: 78.2 µM
T-47D breast
  TGI: 55.3 µM
MDA-N
  TGI: 44.4 µM
OVCAR-5 ovarian
  TGI: 69.5 µM
HL-60(TB) leukemia
  TGI: 40.1 µM
MOLT-4 leukemia
  TGI: > 100 µM
LOX IMVI melanoma
  TGI: 36.9 µM
A498 renal
  TGI: > 100 µM
TK-10 renal
  TGI: > 100 µM
SNB-75 CNS
  TGI: > 100 µM
SF-539 CNS
  TGI: 40.3 µM
DU-145 prostate
  TGI: > 100 µM
786-0 renal
  TGI: 51.1 µM
MDA-MB-231 breast
  TGI: 35.4 µM
SK-MEL-5 melanoma
  TGI: 30.3 µM
BT-549 breast
  TGI: > 100 µM
UACC-257 melanoma
  TGI: 68.7 µM
SN12C renal
  TGI: 32 µM
U251 CNS
  TGI: 46.6 µM
RXF 393 renal
  TGI: 87.5 µM
UO-31 renal
  TGI: > 100 µM
NCI-H226 lung
  TGI: > 100 µM
SK-MEL-2 melanoma
  TGI: 42.7 µM
MALME-3M melanoma
  TGI: 90.3 µM
HT29 colon
  TGI: 45.8 µM
M14 melanoma
  TGI: 28 µM
COLO 205 colon
  TGI: 30.4 µM
IGROV1 ovarian
  TGI: > 100 µM
NCI/ADR-RES ovarian
  TGI: > 100 µM
HS 578T breast
  TGI: 78.6 µM
SK-OV-3 ovarian
  TGI: > 100 µM
MDA-MB-435
  TGI: > 100 µM
MCF7 breast
  TGI: 49.3 µM
CAKI-1 renal
  TGI: 26.6 µM
OVCAR-8 ovarian
  TGI: > 100 µM
NCI-H460 lung
  TGI: 25.1 µM
SF-268 CNS
  TGI: 76.1 µM
HCT-15 colon
  TGI: 22.9 µM
KM12 colon
  TGI: > 100 µM

## O=C(CN1CCCCC1)Nc1ccc2sc3ccccc3c(=O)c2n1
HCT-116 colon
  TGI: 26.2 µM
CCRF-CEM leukemia
  TGI: > 100 µM
EKVX NSCLC
  TGI: 89.3 µM
SR leukemia
  TGI: > 100 µM
OVCAR-4 ovarian
  TGI: > 100 µM
OVCAR-3 ovarian
  TGI: > 100 µM
SNB-19 CNS
  TGI: 59.8 µM
ACHN renal
  TGI: 33.4 µM
UACC-62 melanoma
  TGI: 30.1 µM
RPMI-8226 leukemia
  TGI: 45.1 µM
A549 NSCLC
  TGI: 31.7 µM
PC-3 prostate
  TGI: 50.1 µM
HOP-92 NSCLC
  TGI: 30 µM
HCC-2998 colon
  TGI: 36.8 µM
SF-295 CNS
  TGI: 36.6 µM
K-562 leukemia
  TGI: 52.3 µM
NCI-H23 lung
  TGI: 38.8 µM
T-47D breast
  TGI: > 100 µM
MDA-N
  TGI: 28.7 µM
OVCAR-5 ovarian
  TGI: 38.9 µM
HL-60(TB) leukemia
  TGI: 68.9 µM
MOLT-4 leukemia
  TGI: 30 µM
LOX IMVI melanoma
  TGI: 26.4 µM
TK-10 renal
  TGI: 50.4 µM
SNB-75 CNS
  TGI: 32.3 µM
SK-MEL-28 melanoma
  TGI: 35.2 µM
SF-539 CNS
  TGI: 31.6 µM
DU-145 prostate
  TGI: > 100 µM
786-0 renal
  TGI: 37.2 µM
MDA-MB-231 breast
  TGI: 59.9 µM
NCI-H522 lung
  TGI: 23.1 µM
SK-MEL-5 melanoma
  TGI: 36.1 µM
BT-549 breast
  TGI: 43.1 µM
UACC-257 melanoma
  TGI: 39.7 µM
SN12C renal
  TGI: 68.3 µM
U251 CNS
  TGI: 35.1 µM
UO-31 renal
  TGI: 21.6 µM
SK-MEL-2 melanoma
  TGI: 41 µM
MALME-3M melanoma
  TGI: 49 µM
HT29 colon
  TGI: > 100 µM
M14 melanoma
  TGI: 41.4 µM
COLO 205 colon
  TGI: 28.3 µM
IGROV1 ovarian
  TGI: 37.4 µM
NCI/ADR-RES ovarian
  TGI: 36.1 µM
HS 578T breast
  TGI: 45.2 µM
SW-620 colon
  TGI: 31.4 µM
SK-OV-3 ovarian
  TGI: 48.9 µM
MDA-MB-435
  TGI: 26.2 µM
MCF7 breast
  TGI: 77.9 µM
HOP-62 NSCLC
  TGI: 33.3 µM
CAKI-1 renal
  TGI: 37.7 µM
OVCAR-8 ovarian
  TGI: 47.4 µM
NCI-H460 lung
  TGI: 36.5 µM
SF-268 CNS
  TGI: 74.3 µM
HCT-15 colon
  TGI: 40.2 µM
KM12 colon
  TGI: 38.7 µM
